{
  "source": "paper PMC12867150",
  "about": "“A fungi-derived cyclic peptide enhances Th9-mediated antitumor immunity by targeting ZAP70 and SREBP1” (The Journal of Clinical Investigation, 2025)",
  "key": {"Raji-luciferase tumor [1]": {"tested_on": "Raji-luciferase tumor", "experiment": "Raji-luciferase xenograft, bioluminescence tumor radiance (Figure 8J-K)", "assay_type": "in vivo, NSG mice", "conditions": "EpA-treated human Th9 CAR T cells 2 × 10^6 i.v.; n = 5; result in words", "excerpt": "(§1) Representative plots (A) and quantification (B) (n = 4). (C) Quantitative PCR analysis of IL9, IRF4, and SPI1 mRNA expression in human Th9 cells (n = 3). (D) Flow-cytometric analysis of mitochondrial membrane potential in human Th9 cells (n = 3). (E) Luciferase-based assay analysis of intracellular ATP levels in human Th9 cells (n = 5). (F) Flow-cytometric analysis of phosphorylated ZAP70 in human Th9 cells (n = 3). (G) Flow-cytometric analysis of TNF-α expression in human Th9 cells (n = 4). (H) Cytotoxicity assay of EpA-treated or control CD19 CAR Th9 cells against Raji lymphoma target cells at indicated effector-to-target (E/T) ratios (n = 3). (I) Schematic diagram of the in vivo Raji-luciferase xenograft model in NSG mice receiving control or EpA-treated human Th9 CAR T cells. (J and K) Representative bioluminescence imaging (J) and quantification of tumor radiance (K) in NSG mice at indicated time points after adoptive transfer. […] Statistical significance was determined using 2-tailed unpaired Student’s t test (B–H), 2-way ANOVA followed by Šidák’s post hoc test (K), and log-rank test (L). […]\n(§2) For xenograft models, M-NSG mice were intravenously inoculated with 1 × 10^6 Raji-CD19 tumor cells. […] Tumor progression and immune cell infiltration were subsequently monitored according to experimental endpoints."}, "Raji-luciferase tumor [2]": {"tested_on": "Raji-luciferase tumor", "experiment": "Raji-luciferase xenograft, survival (Figure 8L)", "assay_type": "in vivo, NSG mice", "conditions": "EpA-treated human Th9 CAR T cells 2 × 10^6 i.v.; n = 5; result in words", "excerpt": "as §1, §2"}, "human Th9 CAR T cells [3]": {"tested_on": "human Th9 CAR T cells", "experiment": "Granzyme B+ CAR Th9 cells from spleens after transfer (S9H-I)", "assay_type": "in vivo, mouse", "conditions": "for Proportion of GzmB⁺ cells in spleen: Supplemental Figure 9I", "description": "For xenograft models, M-NSG mice were intravenously inoculated with 1 × 10^6 Raji-CD19 tumor cells. On day 5 after inoculation, 2 × 10^6 CD19-CAR Th9 cells were administered intravenously to evaluate in vivo therapeutic efficacy. Tumor progression and immune cell infiltration were subsequently monitored according to experimental endpoints.\nDetails regarding staining panels (human and mouse), reagents (including clones and catalog numbers), acquisition settings, compensation/controls, and analysis procedures are provided in Supplemental Methods. […]\nTh9 CAR-T c e l l s (n = 3). (H and I) Flow-cytometric analysis of granzyme B⁺ CAR-\nTh9 cells isolated from spleens after adoptive transfer, showing representative plots\n(H) and quantification (I) (n = 5 mice per group). Statistical analysis was performed\nusing one-way ANOVA with Tukey’s post hoc test (A and B), or two-tailed unpaired\nStudent’s t-test (E–G, and I). Repeated data are presented as mean ± SEM. *p < 0.05,\n(also on this page, place not known: TP cells ANOV A 30IL-9+ cells (%) Fato Fato Fato Fato A SSC GzmB CtrlEpA MFIofMitoTracker (×102) GF NormalizedATPlevel CtrlEpA 4MFI of Mito Tracker (×105) CtrlEpA0 GzmB+ cells (%) CD4 10 20 IL-9+ cells (%) Day60 10 20 30 Ctrl)"}, "human Th9 CAR T cells [4]": {"tested_on": "human Th9 CAR T cells", "experiment": "Intracellular ATP of human Th9 CAR T cells (S9F)", "assay_type": "cell-based", "conditions": "result in words", "description": "Intracellular adenosine triphosphate (ATP) levels were measured using a chemiluminescent ATP assay kit (Beyotime, catalog S0026) according to the manufacturer’s protocol. Briefly, cells were lysed and incubated with the luciferase-based detection reagent, and the resulting luminescent signal was detected using an Infinite M200 multimode microplate reader (TECAN). ATP concentrations were calculated based on a standard curve and normalized to cell number or protein content where applicable.\nCt EpA Fat Fat Ct EpA Fat Fat\n(A) Flow-cytometric analysis of intracellular IL-9 expression in human Th9 cells […]\n(B) Flow-cytometric assessment of mitochondrial mass using Mito Tracker in human Th9 cells treated as in (A) (n = 3).\n(C) Flow-cytometric analysis of infection efficiency in Th9 cells transduced with a CD19-directed CAR lentivirus. (D and E) Flow-cytometric analysis of IL-9 expression in human Th9 CAR-T cells on days 5 and 6 of in vitro differentiation, showing representative plots (D) and quantification (E) (n = 3). […]\n(G) Flow-cytometric analysis of mitochondrial mass using Mito Tracker in human Th9 CAR-T c e l l s (n = 3). (H and I) Flow-cytometric analysis of granzyme B⁺ CAR-Th9 cells isolated from spleens after adoptive transfer, showing representative plots (H) and quantification (I) (n = 5 mice per group). […]"}, "[5]": {"tested_on": "lipid species of Th9 cells", "experiment": "Untargeted lipidomics of Th9 cells (Figure 6B)", "assay_type": "cell-based, mouse", "conditions": "day 4; result in words", "description": "Comprehensive lipidomic profiling was performed using a liquid chromatography–mass spectrometry (LC-MS) platform. Briefly, samples were first subjected to protein precipitation and impurity removal to ensure metabolite integrity. Lipid species were then extracted using a solvent-based protocol optimized for broad lipid class coverage. LC-MS analysis was conducted in both positive and negative ionization modes to maximize lipid detection breadth. Mass spectrometry data, including MS and MS/MS spectra, were acquired using a high-resolution instrument. Lipid identification and quantification were performed using LipidSearch software (Thermo Fisher Scientific), which generated a lipid expression matrix for downstream statistical and pathway analysis."}},
  "data": [
    {"substance": "anteiso-C15 Leu7 surfactin [EpA]", "values": [
      {"measurement": "tumor burden", "setting": "Raji-luciferase tumor [1]", "result": "markedly reduced tumor burden"},
      {"measurement": "survival", "setting": "Raji-luciferase tumor [2]", "result": "significantly prolonged survival"},
      {"measurement": "granzyme B levels in CAR T cells after transfer", "setting": "human Th9 CAR T cells [3]; result in words", "result": "elevated"},
      {"measurement": "Proportion of GzmB⁺ cells in spleen", "setting": "human Th9 CAR T cells [3]; replicate 1", "result": 22.5},
      {"measurement": "Proportion of GzmB⁺ cells in spleen", "setting": "human Th9 CAR T cells [3]; replicate 2", "result": 28.9},
      {"measurement": "Proportion of GzmB⁺ cells in spleen", "setting": "human Th9 CAR T cells [3]; replicate 3", "result": 40.8},
      {"measurement": "Proportion of GzmB⁺ cells in spleen", "setting": "human Th9 CAR T cells [3]; replicate 4", "result": 84.4},
      {"measurement": "Proportion of GzmB⁺ cells in spleen", "setting": "human Th9 CAR T cells [3]; replicate 5", "result": 47.4},
      {"measurement": "granzyme B+ CAR Th9 gate number", "setting": "human Th9 CAR T cells [3]; spleens after transfer, representative flow plot, Figure S9H", "result": 47.4},
      {"measurement": "ATP output, Th9 CAR T", "setting": "human Th9 CAR T cells [4]", "result": "elevated"},
      {"measurement": "lipid species", "setting": "[5]", "result": "global reduction in lipid species"}
    ]}
  ]
}
